According to the NIST ThermoML archive (doi:10.1021/je400055v):

Test: xn = mol fraction of the nth substance listed
Conditions: Liquid, Vibrating tube method

CCCCCCCCCCC [undecane] + CCCCCCC
Conditions	mass density [kg/m3]
333.04 K, 8001 kPa, x2 = 0.5063	694.1
333.04 K, 9000 kPa, x2 = 0.5063	695
333.04 K, 10000 kPa, x2 = 0.5063	696
333.04 K, 11000 kPa, x2 = 0.5063	696.9
333.04 K, 12000 kPa, x2 = 0.5063	697.8
333.04 K, 13000 kPa, x2 = 0.5063	698.7
333.04 K, 14000 kPa, x2 = 0.5063	699.6
333.04 K, 15000 kPa, x2 = 0.5063	700.5
333.04 K, 16000 kPa, x2 = 0.5063	701.4
333.04 K, 17001 kPa, x2 = 0.5063	702.2
333.04 K, 18000 kPa, x2 = 0.5063	703.1
333.04 K, 19000 kPa, x2 = 0.5063	703.9
333.04 K, 20000 kPa, x2 = 0.5063	704.7
333.04 K, 21001 kPa, x2 = 0.5063	705.6
333.04 K, 22050 kPa, x2 = 0.5063	706.3
333.04 K, 23000 kPa, x2 = 0.5063	707.1
333.04 K, 24000 kPa, x2 = 0.5063	707.9
333.04 K, 25000 kPa, x2 = 0.5063	708.7
333.05 K, 1000 kPa, x2 = 0.7482	670.8
333.05 K, 2000 kPa, x2 = 0.7482	672
333.05 K, 3000 kPa, x2 = 0.7482	673.1
333.05 K, 4000 kPa, x2 = 0.7482	674.3
333.05 K, 5000 kPa, x2 = 0.7482	675.4
333.05 K, 6000 kPa, x2 = 0.7482	676.4
333.05 K, 7000 kPa, x2 = 0.7482	677.5
333.05 K, 8000 kPa, x2 = 0.7482	678.6
333.05 K, 9000 kPa, x2 = 0.7482	679.6
333.05 K, 10000 kPa, x2 = 0.7482	680.6
333.05 K, 11000 kPa, x2 = 0.7482	681.6
333.05 K, 12000 kPa, x2 = 0.7482	682.6
333.05 K, 13000 kPa, x2 = 0.7482	683.6
333.05 K, 14000 kPa, x2 = 0.7482	684.5
333.05 K, 15000 kPa, x2 = 0.7482	685.4
333.05 K, 16000 kPa, x2 = 0.7482	686.4
333.05 K, 17000 kPa, x2 = 0.7482	687.3
333.05 K, 18000 kPa, x2 = 0.7482	688.2
333.05 K, 19000 kPa, x2 = 0.7482	689
333.05 K, 20000 kPa, x2 = 0.7482	689.9
333.05 K, 21000 kPa, x2 = 0.7482	690.8
333.05 K, 22000 kPa, x2 = 0.7482	691.6
333.05 K, 23000 kPa, x2 = 0.7482	692.4
333.05 K, 24000 kPa, x2 = 0.7482	693.2
333.05 K, 25000 kPa, x2 = 0.7482	694
333.09 K, 1001 kPa, x2 = 0.05	709.1
333.09 K, 1004 kPa, x2 = 0.2346	701.3
333.09 K, 2001 kPa, x2 = 0.05	710.1
